Test results: US20230286973A1, “PROTEIN SECRETION INHIBITORS” (KEZAR LIFE SCIENCES, priority 2020, published 2023)
Where two headings read alike, the source gives them in different places.

How the values were obtained:
[1] = test system: TNFα-FL/Gaussia Luciferase; assay: Dox Induced TNFα-FL-Gluc Assay; type: cell-based; conditions: for IC50: 24 hr Dox induction, 293FRT/TO cells, read-out: 24 hr Dox Inducible TNFaFLGluc 293FRT/TO: Mean IC50; for 24 hr Dox Inducible TNFaFLGluc 293FRT/TO: TNF/PD1: ratio of TNFaFLGluc IC50 to PD1ssGluc IC50
Method in brief: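 Stereoisomer mixtures were tested where stereochemistry is not drawn. Induction used doxycycline added together with compound dilutions in DMSO/media to Flp-In 293 T-REx cells carrying a T-REx-regulated TNFα (aa 1-233)-Gaussia luciferase construct, then incubated at 37 °C, 5% CO2.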

[2] = Liver Microsome Stability Assay (rat); conditions: rat liver microsomes, with NADPH, 1.0 uM compound
Description: (§1) Stability of a compound was assessed in the presence of liver microsomes from various sources—mouse, rat, monkey and human liver microsomes. 1.0 uM compound, 0.4% DMSO in 0.1 M Potassium Phosphate with 1.0 mg/mL liver microsomes, were incubated at 37° C. with or without 1 mM NADPH. The samples were quenched at 0, and 30 minutes.

[3] = Liver Microsome Stability Assay (monkey); conditions: monkey liver microsomes, with NADPH, 1.0 uM compound
Description: as §1

[4] = test system: multiple myeloma cell line U266B1; assay: U266 Cell Viability Assay; type: cell-based, human; conditions: Homo sapiens, U-266, 48 h, U266B1 cells, Celltiter-Glo
Method in brief: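 Steps: culture in RPMI 1640 plus 10% FBS and 2 mM glutamine; plate and add compound dilutions; incubate 48 hours at 37° C., 5% CO2; add CellTiter-Glo and quantify luciferase signal.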

[5] = test system: HER3-ss+4aa/Gaussia Luciferase; assay: Dox-Induced Her3-ss-Gluc Assay; type: cell-based; conditions: 24 hr Dox induction, 293FRT/TO cells, read-out: 24 hr Dox Inducible Her3(ss + 4)Gluc 293FRT/TO: Mean IC50
Method in brief: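 Cells were seeded a day ahead, then given compound diluted in DMSO/media with doxycycline to induce expression of the HER3 signal sequence (+4 aa)–Gaussia luciferase fusion. Incubation was at 37° C., 5% CO2, in a stable Flp-In 293 T-REx line.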

[6] = test system: IL-2-FL/Gaussia Luciferase; assay: Dox Induced IL2-FL-Gluc Assay; type: cell-based; conditions: for IC50: 24 hr Dox induction, 293FRT/TO cells, read-out: 24 hr Dox Inducible IL2FLGluc 293FRT/TO: Mean IC50; for 24 hr Dox Inducible IL2FLGluc 293FRT/TO: IL2/PD1: ratio of IL2FLGluc IC50 to PD1ssGluc IC50
Method in brief: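 Cells are plated one day ahead, then receive compound dilutions in DMSO/media with doxycycline and incubate at 37° C, 5% CO2. They are Flp-In 293 T-REx cells expressing a full-length IL-2 (amino acids 1-153)–Gaussia luciferase fusion under T-REx control.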

[7] = Liver Microsome Stability Assay (mouse); conditions: mouse liver microsomes, with NADPH, 1.0 uM compound
Description: as §1

[8] = test system: multiple myeloma cell line NCI-H929; assay: H929 Cell Viability Assay; type: cell-based, human; conditions: Homo sapiens, NCI-H929, 48 h, NCI-H929 cells, Celltiter-Glo
Method in brief: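 Luminescent ATP detection (CellTiter-Glo) after 48 hours of compound exposure measures viability. Cells were plated in RPMI 1640 containing 10% fetal bovine serum and kept at 37° C under 5% CO2.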

[9] = Liver Microsome Stability Assay (human); conditions: human liver microsomes, with NADPH, 1.0 uM compound
Description: as §1

[10] = test system: PD1-ss+10aa/Gaussia Luciferase; assay: Dox-Induced PD1-ss-Gluc Assay; type: cell-based; conditions: 24 hr Dox induction, 293FRT/TO cells, read-out: 24 hr Dox Inducible PD1ssGluc 293FRT/TO: Mean IC50
Method in brief: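 Flp-In 293 T-REx cells stably carrying a doxycycline-inducible Gaussia luciferase fused to the PD1 signal sequence plus 10 aa were plated the day before. Compound dilutions in DMSO/media containing doxycycline were then added and incubated at 37 °C, 5% CO2. Data for undefined stereochemistry refer to stereoisomer mixtures.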

[11] = '<=>' given where both are I.A.

| Compound | IC50 ([1]; mean) [nM] | 24 hr Dox Inducible TNFaFLGluc 293FRT/TO: TNF/PD1 [1, 11] | Liver Microsome Stability (Multiple Species): Rat - % Remaining after 30 min w/NADPH [2] [%] | Liver Microsome Stability (Multiple Species): Monkey - % Remaining after 30 min w/NADPH [3] [%] | EC50 [4] [nM] | IC50 ([5]; mean) [nM] | IC50 ([6]; mean) [nM] | 24 hr Dox Inducible IL2FLGluc 293FRT/TO: IL2/PD1 [6, 11] | Liver Microsome Stability (Multiple Species): Mouse - % Remaining after 30 min w/NADPH [7] [%] | EC50 [8] [nM] | Liver Microsome Stability (Multiple Species): Human - % Remaining after 30 min w/NADPH [9] [%] | IC50 ([10]; mean) [nM] | IC50 [1] [nM] | 24 hr Dox Inducible TNFaFLGluc 293FRT/TO: TNF/PD1 [1] | IC50 [5] [nM] | IC50 [6] [nM] | 24 hr Dox Inducible IL2FLGluc 293FRT/TO: IL2/PD1 [6] | IC50 [10] [nM] |
| --- | --- | --- | --- | --- | --- | --- | --- | --- | --- | --- | --- | --- | --- | --- | --- | --- | --- | --- |
| C[C@@H](CC#N)Cn1cccc1C(=O)Nc1nc([C@H]2CCCN2c2ccccc2)cs1 [Compound C87, 1-((S)-3-cyano-2-methylpropyl)-N-(4-((R)-1-phenylpyrrolidin-2-yl)thiazol-2-yl)-1H-pyrrole-2-carboxamide] | 731 | 9.32 | 6.85 | 0.21 | > 25000 | 129 | 238 | 3 | 14.2 | 4050 | 12.8 | 78.4 |  |  |  |  |  |  |
| Cc1nc(/C=C/c2csc(NC(=O)c3cccn3Cc3ccncc3)n2)cn1C [Compound B51, (E)-N-(4-(2-(1,2-dimethyl-1H-imidazol-4-yl)vinyl)thiazol-2-yl)-1-(pyridin-4-ylmethyl)-1H-pyrrole-2-carboxamide] |  |  | 1.43 | 0.27 | > 25000 |  |  |  | 6.7 | > 25000 | 0.21 |  | > 25000 | >4.65 | > 25000 | > 25000 | >4.6 | 5380 |
| CC(=O)NCc1ccc(N2CCC[C@@H]2c2csc(NC(=O)c3cccn3Cc3ccncc3)n2)cc1 [Compound A45, (R)-N-(4-(1-(4-(acetamidomethyl)phenyl)pyrrolidin-2-yl)thiazol-2-yl)-1-(pyridin-4-ylmethyl)-1H-pyrrole-2-carboxamide] |  |  | 0.29 | 0.1 | > 25000 |  |  |  | 0.76 | 425 | 0.08 |  | 220 | 13.4 | 34.3 | 55.5 | 3.4 | 16.4 |
| O=C(Nc1nc([C@H]2CCCN2c2ccc(OC3CCSCC3)cc2)cs1)c1cccn1Cc1ccnc(F)c1 [Compound A170, (R)-1-((2-fluoropyridin-4-yl)methyl)-N-(4-(1-(4-((tetrahydro-2H-thiopyran-4-yl)oxy)phenyl)pyrrolidin-2-yl)thiazol-2-yl)-1H-pyrrole-2-carboxamide] |  |  | 2.02 | 2.6 | > 25000 |  |  |  | 1.37 | 5710 | 0.58 |  | 687 | 10.1 | 81.1 | 83.4 | 1.2 | 68.3 |
| CC(=O)Nc1ccc(N2CCC[C@@H]2c2csc(NC(=O)c3cccn3CC3CCOCC3)n2)cc1 [Compound C107, (R)-N-(4-(1-(4-acetamidophenyl)pyrrolidin-2-yl)thiazol-2-yl)-1-((tetrahydro-2H-pyran-4-yl)methyl)-1H-pyrrole-2-carboxamide] | 793 | 24.6 | 18.2 | 5.47 | > 25000 | 56.2 | 87.1 | 2.7 | 16.4 | 2160 | 23.7 | 32.2 |  |  |  |  |  |  |
| CC(C)c1ccc(/C=C/c2csc(NC(=O)c3cccn3CC3CCOCC3)n2)nc1 [Compound D6, (E)-N-(4-(2-(5-isopropylpyridin-2-yl)vinyl)thiazol-2-yl)-1-((tetrahydro-2H-pyran-4-yl)methyl)-1H-pyrrole-2-carboxamide] | > 25000 | >42.0 | 0.06 | 0.04 | 12300 | 6200 | > 25000 | >42 | 0.09 | 8680 | 0.03 | 595 |  |  |  |  |  |  |
| CC(=O)N1CCCCC1c1ccc(N2CCC[C@@H]2c2csc(NC(=O)c3cccn3Cc3ccncc3)n2)cc1 (stereo partly drawn) [Compound A58, N-(4-((2R)-1-(4-(1-acetylpiperidin-2-yl)phenyl)pyrrolidin-2-yl)thiazol-2-yl)-1-(pyridin-4-ylmethyl)-1H-pyrrole-2-carboxamide] |  |  | 4.13 | 0.29 | 9990 |  |  |  | 0.24 | 3340 | 0.4 |  | 1880 | 17.4 | 249 | 296 | 2.7 | 108 |
| Cc1cccc(/C=C/c2csc(NC(=O)c3cccn3Cc3ccnc(F)c3)n2)n1 [Compound B59, (E)-1-((2-fluoropyridin-4-yl)methyl)-N-(4-(2-(6-methylpyridin-2-yl)vinyl)thiazol-2-yl)-1H-pyrrole-2-carboxamide] |  |  | 0.55 | 0.17 | 11900 |  |  |  | 0.64 | 7910 | 0.32 |  | 13900 | 29.7 | 2100 | 6090 | 13 | 467 |
| CC(=O)N1CC(OC(=O)Nc2ccc(N3CCC[C@@H]3c3csc(NC(=O)c4cccn4Cc4ccnc(F)c4)n3)cc2)C1 [Compound A179, 1-acetylazetidin-3-yl (R)-(4-(2-(2-(1-((2-fluoropyridin-4-yl)methyl)-1H-pyrrole-2-carboxamido)thiazol-4-yl)pyrrolidin-1-yl)phenyl)carbamate] |  |  | 69.3 | 15.4 | > 25000 |  |  |  | 34.8 | 70.5 | 21.3 |  | 138 | 52.3 | 6.96 | 9.01 | 3.4 | 2.63 |
